Assay results as given in patent US9815878B2, “Use of PEDF-derived polypeptides for preventing and/or ameliorating skin aging” (MacKay Memorial Hospital, priority 2012, dated 2017).

What was measured:
dermal fibroblasts = assay: Dermal fibroblast proliferation in photo damaged (UVB irradiated) skin in vivo, BrdU/vimentin staining; set-up: species or system nude mice (BALB/cAnN.Cg-Foxn1nu/CrlNarl); conditions: for BrdU/Vimentin Labeling Index (%): after 8-week UVB, ointment plus microneedle twice a week for 2 weeks
Procedure: For animal study, BrdU was reconstituted in DMSO as stock (80 mM). 10 μl of BrdU stock mixed with 90 μl of PBS was intraperitoneally injected into mouse at 16 hours prior to euthanasia. Formalin-fixed, paraffin-embedded skin specimens were deparaffinized in xylene and rehydrated in a graded series of ethanol. The specimens were then exposed to 1 N HCl at room temperature for 1 hour for subsequent immunofluorescence study.
BrdU-labeled DNA was detected by polyclonal anti-BrdU antibody and rhodamine-conjugated donkey anti-rabbit IgG. Nuclei were counterstained with Hoechst 33258 (blue).
(§1) Six-week-old female nude mice (BALB/cAnN.Cg-Foxn1nu/CrlNarl) were irradiated with ultraviolet B (UVB) on the back 5 times a week for an eight-week period using a bank of five UVB lamps (model XL-1000B, Spectrolinker™ apparatus; emission peak: 312 nm), placed about 20 cm above the backs of the animals. During the UVB exposure, the mice were allowed to move freely within the cage. The irradiation intensity represented as the minimal erythe al dose (MED) was set at 1 MED during the first 2 weeks (60 mJ/cm^2), and was progressively elevated to 2 MED (120 mJ/cm^2) in the 3rd-4th week, to 3 MED (180 mJ/cm^2) in the 5th-6th week, and to 4 MED (240 mJ/cm^2) during the 7th-8th weeks of the experiment. After the 8-week UVB exposure, animals developed noticeable wrinkles and were subsequently randomly divided into the following 4 groups, with 3 mice in each group. In the UVB/vehicle, UVB/29-mer, UVB/20-mer, and UVB/18-mer groups, 350 μl of ointment (containing DMSO, 29-mer, 20-mer or 18-mer PEDF) was applied to the dorsal skin and then transdermal delivery was achieved by punching the ointment treated skin with the microneedle patch. Also, mice that were not subjected to UVB radiation were used as control (Normal). The ointment/microneedle treatment was given twice a week for 2 weeks. Mice were intraperitoneally given BrdU and euthanized at 16 hours after the last treatment. Skin sections were stained for vimentin and BrdU. The level of BrdU- and vimentin-double positive cells was expressed as the percentage of BrdU- and vimentin-double positive cells per total vimentin-positive cells (the BrdU/Vimentin Labeling Index).

MMP-13 = assay: UVB-induced MMP-13 mRNA expression in primary mouse dermal fibroblasts, RT-PCR; assay type: cell-based; conditions: for MMP-13 Expression Level (%): mRNA, Vehicle/UVB set to 100%; for effect on UVB-induced upregulation of MMP-13: cells pretreated with peptide
Procedure: Full-thickness skin tissue was obtained from the dorsum of C57BL/6 mouse. The subcutaneous tissue was carefully dissected from the skin and washed three times in sterile phosphate-buffered saline (PBS). The tissue was then cut into small pieces (1-2 mm^3). After being digested with 0.1% dispase at 4° C. overnight, the epidermal layers were removed, and the remaining dermal parts were further digested with 0.1% collagenase I at 37° C. for another 4 hours. The digested cells were then collected by centrifugation (400 g for 5 minutes) and resuspended in high-glucose DMEM supplemented with 10% FBS, 2 mM L-glutamine, and 1% penicillin-streptomycin antibiotic mixture. Cells were seeded onto tissue-culture plates (Falcon Labware; NJ, USA) at 1×10^3 cells/cm^2 and maintained at 37° C. with 5% CO2. After 24 hours, the medium was discarded to remove residual non-adherent cells, and cell culture was replenished with a fresh medium. For passage, near-confluent cells were harvested with 0.25% trypsin/EDTA.
The total RNA was extracted from cells using the TRIzol (Invitrogen) and treated with RNase-free DNase I (Qiagen, Santa Clarita, Calif.) to remove genomic DNA and then purified with an RNA purification kit (Dynabeads; Invitrogen). 1 μg of total RNA retrieved from primary dermal fibroblast was reverse-transcribed into cDNA by 200 units of expand Reverse-Transcriptase (Roche, Mannheim, Germany) in 20 μl of reaction buffer containing 0.25 μg of random primers and 0.8 mM dNTPs at 42° C. for 1 hour. 2 μl of the cDNA was used for the PCR reaction as templates. PCR was performed in a 30 μl volume containing 15 μl of EconoTaq® PLUS GREEN 2× Master Mix (Lucigen® Corp.), 1 μM of each primer and 2 μl of template DNA. cDNA was synthesized in an 18-22 cycle amplification reaction (denaturation, 20 s, 94° C.; annealing, 30 s, 57° C.; and polymerization, 40 s, 72° C.). The number of cycles for the primer set was chosen to be in the linear range of amplification. The sequences of specific PCR primers were mouse MMP-13 (accession number: NM_008607) sense, […] (SEQ ID NO: 12); antisense, […] (SEQ ID NO: 13); PCR product: 201 bp; and mouse glyceraldehyde 3-phosphate dehydrogenase (GAPDH; accession number: M32599) sense, […] (SEQ ID NO: 14); and anti-sense, […] (SEQ ID NO: 15); PCR product: 223 bp.). The PCR products were electrophoresed in a 2% agarose gel containing ethidium bromide and visualized by UV illumination. The intensities of the PCR products were quantified densitometrically using a FUJI LAS-3000 system and Multi Gauge Ver. 1.01 software (Fujifilm, Tokyo, Japan).
Primary mouse dermal fibroblasts in passage 2 of monolayer cultures were incubated with 1% FBS-DMEM supplemented with or without 100 nM PEDF peptide for 24 hours, and then subjected to UVB irradiation as described above. After UVB irradiation, PBS was replaced with 1% FBS-DMEM with or without PEDF peptide for further 24 hours, and then cellular total RNAs were extracted for subsequent RT-PCR analysis. The expression level of MMP-13 mRNA was normalized with the expression level in the Vehicle/UVB group (set to 100%), and quantitative results are summarized in Table 7.

UVB-induced wrinkles = UVB-induced wrinkles in nude mice, appearance photographed; assay type: in vivo; conditions: 8-week UVB, then ointment plus microneedle twice a week for 2 weeks; FIG. 4
Text: as §1
Formation of wrinkles is closely related to repetitive exposure to UVB irradiation. […] In this working example, we investigated the anti-wrinkle effect of present PEDF peptides in nude (i.e, hairless) mice. Wrinkles were induced by an eight-week UVB irradiation according to the procedure set forth in Example 3.3 above. […]

[1] = after UVB exposure, transdermal delivery
[2] = 100 nM peptide 24 h before and 24 h after UVB 15 mJ/cm^2

Substance	BrdU/Vimentin Labeling Index (%) (dermal fibroblasts)	proliferative activity of dermal fibroblasts relative to UVB/vehicle group (dermal fibroblasts; [1])	MMP-13 Expression Level (%) (MMP-13; [2])	MMP-13 Expression Level (%) (MMP-13; 100 nM peptide, no UVB irradiation)	effect on UVB-induced upregulation of MMP-13 (MMP-13)	wrinkle appearance after 2-week treatment (UVB-induced wrinkles)	effect on dermal fibroblast proliferation in UVB-damaged skin (dermal fibroblasts; [1])
Ac-SLGAEQRTESIIHRALYYDLISSPDIHGT-NH2 [29-mer]	5.2 ± 1.9	about 2.5 fold	15.8 ± 1.8	4.8 ± 0.63	substantially reduced	wrinkle lines were fewer and finer	–
EQRTESIIHRALYYDLIS [18-mer]	2.0 ± 0.8	–	103.3 ± 7.8	–	unable to reduce the UVB-induced upregulation	not capable of reducing the wrinkles	failed to promote the dermal fibroblast proliferation
SLGAEQRTESIIHRALYYDL [20-mer, synthetic peptide corresponding to residues 93-112 of human PEDF]	5.9 ± 1.3	about 2.5 fold	15.8 ± 3.3	–	substantially reduced	wrinkle lines were fewer and finer	–
